Data taken from patent US8629166B2, “5-cycloalkyl- or 5-heterocyclyl-nicotinamides” (Hoffmann-La Roche Inc., priority 2011, dated 2014).
One block for each molecule: values may come before it.

What was measured:
[1] = molecular target: T1, human CB1 receptor (Homo sapiens, UniProt P21554); experiment: CB1 receptor affinity ([3H]-CP-55,940 displacement, HEK cell membranes); assay type: binding; conditions: displacement of [3H]-CP-55,940 at 10 μM
T1 construct: expressed in transfected cells; host or cells: human embryonic kidney (HEK) cells, Semliki Forest Virus system, membrane preparation
T1 sequence (P21554 whole entry): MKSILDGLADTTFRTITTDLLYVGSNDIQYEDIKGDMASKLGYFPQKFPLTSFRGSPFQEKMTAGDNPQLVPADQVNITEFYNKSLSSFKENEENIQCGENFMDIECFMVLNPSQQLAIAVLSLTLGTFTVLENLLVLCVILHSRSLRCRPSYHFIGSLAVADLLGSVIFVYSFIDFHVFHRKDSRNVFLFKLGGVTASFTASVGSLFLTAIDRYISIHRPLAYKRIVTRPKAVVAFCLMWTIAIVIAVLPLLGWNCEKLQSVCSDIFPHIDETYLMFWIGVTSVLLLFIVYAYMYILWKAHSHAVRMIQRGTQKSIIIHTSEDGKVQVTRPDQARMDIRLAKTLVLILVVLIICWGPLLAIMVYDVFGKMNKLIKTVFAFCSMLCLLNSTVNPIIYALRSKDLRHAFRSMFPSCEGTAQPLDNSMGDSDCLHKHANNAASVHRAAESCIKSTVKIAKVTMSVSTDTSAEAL
Protocol: (§1) CB1 and CB2 Receptor Affinity
(§2) The affinity of the compounds of the invention for cannabinoid receptors was determined using membrane preparations of human embryonic kidney (HEK) cells in which the human CB1 receptor is transiently transfected using a Semliki Forest Virus system in conjunction with [3H]-CP-55,940 as radioligand. After incubation of freshly prepared cell membrane preparation with the [^3H]-ligand, with or without addition of compounds of the invention, separation of bound and free ligand was performed by filtration over glass fiber filters. Radioactivity on the filter was measured by scintillation counting.
(§3) The ability of the compounds to displace the radioligand [^3H]-CP-55,940 was measured at a concentration of 10 μM and values provided as [% inhibition @ 10 μM] both for the CB1 and CB2 receptor assay, The lower % inhibition is, the lower the likelihood of side effects based on CB1 or CB2 receptor inhibition is.

[2] = test system: ABCA1 protein; experiment: Detection of upregulation of ABCA1 protein in cells (ApoA-I binding, high content image analysis); assay type: cell-based; conditions: THP-1 macrophage cells; for % increase of ABCA1 at 3 μM: compound at 3 μM, 24 hrs; for EC50: ABCA1 protein increasing efficacy
Protocol: Detection of Upregulation of ABCA1 Protein in Cells
The ability of compounds of the invention to increase the level of ABCA1 protein is determined in replicate cultures of THP-1 macrophage cells in 96-well microplates. Cells are plated at an initial density of 100,000 cells/well in 100 μl medium and differentiated to adherent macrophages with the addition of PMA (100 nM) for 68 hrs in 10% fetal bovine serum, 3 μl/L of b-mercaptoethanol, RPMI-1640 medium. Then, cells are incubated with RPMI-1640 medium containing 1% FCS, 25 μg/ml acetylated LDL, for 24 hours at 37° C. Following incubation with acetylated LDL, cells are washed twice with 50 μl PBS and incubated with 100 μl of RPMI-1640 medium containing the compound of interest solubilized in DMSO for an additional 24 hrs. The final DMSO concentration in presence of cells is maintained at 0.5%. ApoA-I binding assay using High Content Image Analysis is initiated by replacing with fresh medium, RPMI without Phenol Red, 0.2% BSA containing AlexaFluor®647 labeled ApoA-I for 2 h/37° C./5% CO2. Then, cells are fixed with 4% Formaldehyde in PBS (15 min, RT). Following Nuclei are stained with Hoechst solution (3 μM PBS) and Cytoplasm with Cell Mask Blue (2 μg/ml PBS), 15 min, RT. Finally the stained cells are fixed with a second round of formaldehyde treatment. Fixed stained cells are washed and kept in PBS at 4° C. and can be read immediately until one month after preparation.
The Alexa Fluor 647-labeled Apolipoprotein A-I (20 nM) was prepared as follows: Human recombinant Apolipoprotein A-I (ApoA-I) was exchanged to a buffer of 0.02 M NaHCO3 at pH 8.2 on an NAP desalting column (GE Healthcare) and brought to a concentration to 40 μM (1.13 mg/ml) by adjustment with the same buffer. The ApoA-I was fluorescently labeled by incubation with Alexa Fluor carboxylic acid succimidyl ester (Alexa Fluor 647, Invitrogen A-20006) at a 2:1 molar ratio (Alexa to ApoA-I) for 1 h under shaking at RT. The remaining unconjugated label was removed by buffer exchange to 0.02M NaHCO3 at pH 8.2.
Imaging and data collection were performed on an OPERA confocal microplate imaging reader using a 20× water immersion objective and UV360 or 405 laser to identify the cell nuclei and a 635 laser to identify the fluorescent ApoA-I. Eight fields of view are captured per well. Image capture and analysis was performed with the Acapella software. Background fluorescence detected in control wells without ApoA-I was subtracted.
Using XLfit3 program (ID Business Solutions Ltd. UK), the model 205 for Dose Response One Site is used to calculate the EC50 values. […] Particularly, the compounds of the present invention have EC50 values in a range of 0.1 μM to 3 μm.

[3] = molecular target: T2, human CB2 receptor (Homo sapiens, UniProt P34972); experiment: CB2 receptor affinity ([3H]-CP-55,940 displacement, HEK cell membranes); assay type: binding; conditions: displacement of [3H]-CP-55,940 at 10 μM
T2 construct: expressed in transfected cells; host or cells: human embryonic kidney (HEK) cells, Semliki Forest Virus system, membrane preparation
T2 sequence (P34972 whole entry): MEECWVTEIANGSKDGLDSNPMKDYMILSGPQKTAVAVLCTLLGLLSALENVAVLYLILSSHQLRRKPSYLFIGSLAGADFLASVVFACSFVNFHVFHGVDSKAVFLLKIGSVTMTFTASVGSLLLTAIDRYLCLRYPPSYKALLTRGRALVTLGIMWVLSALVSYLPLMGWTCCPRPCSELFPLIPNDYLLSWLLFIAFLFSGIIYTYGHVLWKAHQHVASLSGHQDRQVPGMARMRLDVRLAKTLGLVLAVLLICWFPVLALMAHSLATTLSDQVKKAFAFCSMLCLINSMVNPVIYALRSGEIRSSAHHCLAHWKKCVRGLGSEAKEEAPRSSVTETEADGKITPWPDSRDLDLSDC
Protocol: as §1
as §2, with “cannabinoid CB2” for “cannabinoid”, “CB2” for “CB1”, “[^3H]-CP-55,940” for “[3H]-CP-55,940”
as §3

SMILES: O=C(NCc1nc(C(F)(F)F)no1)c1cnc(OCC(F)(F)F)c(C2CCCC2)c1 [Example 11, 5-cyclopentyl-6-(2,2,2-trifluoro-ethoxy)-N-(3-trifluoromethyl-[1,2,4]oxadiazol-5-ylmethyl)-nicotinamide]
- CB1 receptor affinity [% inhibition @ 10 μM] [1]: 29 % inhibition
- % increase of ABCA1 at 3 μM [2]: >45% @ 3 μM
- CB2 receptor affinity [% inhibition @ 10 μM] [3]: −3 % inhibition

SMILES: CCN(C(=O)c1cnc(OCC(F)(F)F)c(C2=CCCCC2)c1)C(C)C [Example 2, 5-cyclohex-1-enyl-N-ethyl-N-isopropyl-6-(2,2,2-trifluoro-ethoxy)-nicotinamide]
- CB1 receptor affinity [% inhibition @ 10 μM] [1]: 37 % inhibition
- % increase of ABCA1 at 3 μM [2]: >45% @ 3 μM
- CB2 receptor affinity [% inhibition @ 10 μM] [3]: 3 % inhibition

SMILES: O=C(Nc1cccnc1)c1cnc(OCC(F)(F)F)c(C2CCCC2)c1 [Example 8, 5-cyclopentyl-N-pyridin-3-yl-6-(2,2,2-trifluoro-ethoxy)-nicotinamide]
- CB1 receptor affinity [% inhibition @ 10 μM] [1]: 49 % inhibition
- % increase of ABCA1 at 3 μM [2]: >45% @ 3 μM
- CB2 receptor affinity [% inhibition @ 10 μM] [3]: 13 % inhibition

SMILES: Cc1noc(CNC(=O)c2cnc(OCC(F)(F)F)c(C3CCCCC3)c2)n1 [Example 14, 5-cyclohexyl-N-(3-methyl-[1,2,4]oxadiazol-5-ylmethyl)-6-(2,2,2-trifluoro-ethoxy)-nicotinamide]
- CB1 receptor affinity [% inhibition @ 10 μM] [1]: 34 % inhibition
- % increase of ABCA1 at 3 μM [2]: >45% @ 3 μM
- CB2 receptor affinity [% inhibition @ 10 μM] [3]: 3 % inhibition

SMILES: O=C(Nc1cccnc1)c1cnc(OCC(F)(F)F)c(C2CCCCC2)c1 [Example 6, 5-cyclohexyl-N-pyridin-3-yl-6-(2,2,2-trifluoro-ethoxy)-nicotinamide]
- CB1 receptor affinity [% inhibition @ 10 μM] [1]: 17 % inhibition
- EC50 [2]: 3390 nM
- CB2 receptor affinity [% inhibition @ 10 μM] [3]: 2 % inhibition

SMILES: O=C(NCc1nc(C(F)(F)F)no1)c1cnc(OCC(F)(F)F)c(C2=CCCCC2)c1 [Example 3, 5-cyclohex-1-enyl-6-(2,2,2-trifluoro-ethoxy)-N-(3-trifluoromethyl-[1,2,4]oxadiazol-5-ylmethyl)-nicotinamide]
- CB1 receptor affinity [% inhibition @ 10 μM] [1]: 42 % inhibition
- % increase of ABCA1 at 3 μM [2]: >45% @ 3 μM
- CB2 receptor affinity [% inhibition @ 10 μM] [3]: −1 % inhibition

SMILES: O=C(Nc1cccnc1)c1cnc(OCC(F)(F)F)c(C2=CCCCC2)c1 [Example 1, 5-cyclohex-1-enyl-N-pyridin-3-yl-6-(2,2,2-trifluoro-ethoxy)-nicotinamide]
- CB1 receptor affinity [% inhibition @ 10 μM] [1]: 33 % inhibition
- EC50 [2]: 510 nM
- CB2 receptor affinity [% inhibition @ 10 μM] [3]: 5 % inhibition

More lines, main results first:

- CB1 receptor affinity [% inhibition @ 10 μM] [1]: 12 % inhibition
- CB2 receptor affinity [% inhibition @ 10 μM] [3]: −11 % inhibition
SMILES: O=C(Nc1cncnc1)c1cnc(OCC(F)(F)F)c(C2CCCC2)c1 [Example 22, 5-cyclopentyl-N-pyrimidin-5-yl-6-(2,2,2-trifluoro-ethoxy)-nicotinamide]
- % increase of ABCA1 at 3 μM [2]: >45% @ 3 μM

- CB1 receptor affinity [% inhibition @ 10 μM] [1]: 27 % inhibition
- CB2 receptor affinity [% inhibition @ 10 μM] [3]: 0 % inhibition
SMILES: N#Cc1ccc(NC(=O)c2cnc(OCC(F)(F)F)c(C3CCCC3)c2)cc1 [Example 25, N-(4-cyano-phenyl)-5-cyclopentyl-6-(2,2,2-trifluoro-ethoxy)-nicotinamide]
- % increase of ABCA1 at 3 μM [2]: >45% @ 3 μM

- CB1 receptor affinity [% inhibition @ 10 μM] [1]: 24 % inhibition
- CB2 receptor affinity [% inhibition @ 10 μM] [3]: −2 % inhibition
SMILES: O=C(Nc1ccnnc1)c1cnc(OCC(F)(F)F)c(C2CCCC2)c1 [Example 26, 5-cyclopentyl-N-pyridazin-4-yl-6-(2,2,2-trifluoro-ethoxy)-nicotinamide]
- % increase of ABCA1 at 3 μM [2]: >45% @ 3 μM

- CB1 receptor affinity [% inhibition @ 10 μM] [1]: 25 % inhibition
- CB2 receptor affinity [% inhibition @ 10 μM] [3]: 9 % inhibition
SMILES: O=C(NCc1ccn(CC2CC2)n1)c1cnc(OCC(F)(F)F)c(C2CCCC2)c1 [Example 17, 5-cyclopentyl-N-(1-cyclopropylmethyl-1H-pyrazol-3-ylmethyl)-6-(2,2,2-trifluoro-ethoxy)-nicotinamide]
- % increase of ABCA1 at 3 μM [2]: >45% @ 3 μM

- CB1 receptor affinity [% inhibition @ 10 μM] [1]: 25 % inhibition
- CB2 receptor affinity [% inhibition @ 10 μM] [3]: 5 % inhibition
SMILES: O=C(NCc1csc(C2CC2)n1)c1cnc(OCC(F)(F)F)c(C2CCCCC2)c1 [Example 16, 5-cyclohexyl-N-(2-cyclopropyl-thiazol-4-ylmethyl)-6-(2,2,2-trifluoro-ethoxy)-nicotinamide]
- % increase of ABCA1 at 3 μM [2]: >45% @ 3 μM

- CB1 receptor affinity [% inhibition @ 10 μM] [1]: 20 % inhibition
- CB2 receptor affinity [% inhibition @ 10 μM] [3]: −11 % inhibition
SMILES: O=C(Nc1cncnc1)c1cnc(OCC(F)(F)F)c(C2CCCCC2)c1 [Example 19, 5-cyclohexyl-N-pyrimidin-5-yl-6-(2,2,2-trifluoro-ethoxy)-nicotinamide]
- % increase of ABCA1 at 3 μM [2]: >45% @ 3 μM

- CB1 receptor affinity [% inhibition @ 10 μM] [1]: 31 % inhibition
- CB2 receptor affinity [% inhibition @ 10 μM] [3]: −3 % inhibition
SMILES: O=C(Nc1ccncn1)c1cnc(OCC(F)(F)F)c(C2CCCC2)c1 [Example 23, 5-cyclopentyl-N-pyrimidin-4-yl-6-(2,2,2-trifluoro-ethoxy)-nicotinamide]
- % increase of ABCA1 at 3 μM [2]: >45% @ 3 μM

- CB1 receptor affinity [% inhibition @ 10 μM] [1]: 12 % inhibition
- CB2 receptor affinity [% inhibition @ 10 μM] [3]: 2 % inhibition
SMILES: O=C(Nc1cnccn1)c1cnc(OCC(F)(F)F)c(C2CCCC2)c1 [Example 28, 5-cyclopentyl-N-pyrazin-2-yl-6-(2,2,2-trifluoro-ethoxy)-nicotinamide]
- % increase of ABCA1 at 3 μM [2]: >45% @ 3 μM

- CB1 receptor affinity [% inhibition @ 10 μM] [1]: 10 % inhibition
- CB2 receptor affinity [% inhibition @ 10 μM] [3]: −17 % inhibition
SMILES: N#Cc1ccc(NC(=O)c2cnc(OCC(F)(F)F)c(C3CCCCC3)c2)cc1 [Example 24, N-(4-cyano-phenyl)-5-cyclohexyl-6-(2,2,2-trifluoro-ethoxy)-nicotinamide]
- % increase of ABCA1 at 3 μM [2]: >45% @ 3 μM

- CB1 receptor affinity [% inhibition @ 10 μM] [1]: 36 % inhibition
- CB2 receptor affinity [% inhibition @ 10 μM] [3]: 6 % inhibition
SMILES: O=C(Nc1ccnnc1)c1cnc(OCC(F)(F)F)c(C2CCCCC2)c1 [Example 20, 5-cyclohexyl-N-pyridazin-4-yl-6-(2,2,2-trifluoro-ethoxy)-nicotinamide]
- % increase of ABCA1 at 3 μM [2]: >45% @ 3 μM
